Experimental data as given in article PMC10186366 (ACS Pharmacology & Translational Science, 2023).
Values joined by “and” are separate entries in the source; they are usually repeats but may differ in a detail not shown here. Equal values may be shown once.

Experiments:
KB tumor cells = test: Metabolite rescue of growth inhibition in KB cells; assay type: cell-based, human; details: glycine- and nucleoside-free media; for Protection from growth inhibition by adenosine: inhibitor up to 1000 nM, 60 μM adenosine alone
Protocol: Upper panel: schematic of C1 metabolism. Undefined abbreviations include the following: DHF, dihydrofolate; THF, tetrahydrofolate; FAICAR, formyl 5-aminoimidazole-4-carboxamide ribonucleotide; fGAR, formyl GAR; and 5,10-meTHF, 5,10-methylene tetrahydrofolate. Lower panels: KB cells were plated (4000 cells/well) in glycine-, nucleoside-, and folate-free RPMI 1640 medium with 10% dialyzed fetal bovine serum, antibiotics, L-glutamine, and 2 nM leucovorin over a range of inhibitor concentrations in the presence of adenosine (60 μM), glycine (160 μM), thymidine (10 μM), or AICA (320 μM). As shown, combined glycine plus adenosine or AICA was also tested to identify potential mitochondrial C1 targeting.[45] Cell proliferation was assayed with a fluorescence-based assay.[26] Data are representative of at least triplicate experiments (presented as mean values plus/minus standard errors). Methods are described in the Experimental Section, and additional metabolite rescue data for 4, 5, and 8–11 are presented in Figure S3 (Supporting Information).
Metabolite “rescue” experiments have been used to identify targeted pathways for novel antifolate inhibitors including de novo purine nucleotide and thymidylate biosynthesis (protection by adenosine and thymidine, respectively)[25]−[27],[29],[30],[32],[43],[45]−[47] and mitochondrial C1 metabolism (protection by glycine and adenosine).[45] To gain insights into the targeted pathways that contribute to the loss of KB tumor cell proliferation upon treatment with compounds 3–9, we tested the reversal of growth inhibition by the active compounds in Table 1 (up to 1000 nM) in glycine- and nucleoside-free media in the presence of 60 μM adenosine, 160 μM glycine, or 10 μM thymidine alone or with combined adenosine and glycine. The use of glycine- and nucleoside-free media for these experiments expands the ability to identify causal intracellular targets (including previously unrecognized mitochondrial targets[45]) that can be confirmed by targeted metabolomics and direct in vitro assays (below). […] The results of these experiments are shown in Figure 7 (lower panel) and in Figure S3 (Supporting Information).
AICA circumvents the first folate-dependent enzyme, GARFTase, and is directly metabolized to ZMP (AICAR), thus providing a substrate for AICARFTase[26],[32],[46] (Figure 7, upper panel). This distinguishes primary inhibition at GARFTase (protection by AICA) versus AICARFTase (incomplete protection by AICA) for inhibitors of de novo purine biosynthesis.[25]
Additional proliferation assays with metabolite rescue used KB cells to identify the targeted pathway and enzyme(s) in folate- and glycine-free RPMI1640, DFBS, 2 mM glutamine, and antibiotics. […] These assays have been previously described.[25],[26],[45]

[1] = system: RT16 CHO cells (expresses only human FRα); details: 96 h; mean (standard error); previously published; cited from earlier work
[2] = system: D4 CHO cells (expresses only human FRβ); details: 96 h; mean (standard error); previously published; cited from earlier work
[3] = system: SHMT2 (mitochondrial C1 metabolism) in KB tumor cells; test: Targeted metabolomics flux analysis with [2,3,3-2H]serine in KB cells; assay type: cell-based, human; details: 0.1 μM compound, 250 μM [2,3,3-2H]serine, versus vehicle-treated cells
Text: Serine is catabolized in the mitochondria via SHMT2, which converts serine to glycine and 5,10-methylene THF, the latter of which is metabolized by MTHFD2 to 10-CHOTHF and by MTHFD1L to formate (Figure 7).
The cells were processed for liquid chromatography–mass spectrometry (LC–MS) analysis of total serine and glycine, and deuterated serine (M + 3, M + 2, M + 1, and M + 0 serine, where M + n represents species with n deuterium atoms) and glycine (M + 1 and M + 0) isotopomers. The results are shown in Figure 8 and are compared to those for control (vehicle-treated) cells (labeled “N/A”).
Figure 8 Metabolomics flux analysis with [2,3,3-^2H]serine to assay mitochondrial C1 metabolism via SHMT2. (A) A schematic of [2,3,3-^2H]serine metabolism is shown. Heavy (^2H) atoms in serine (colored circles) are metabolized via SHMT2 initially followed by MTHFD2 and MTHFD1L to formate. (B, C) Total serine and glycine and the distribution of the serine (M + n, n = 0−3) and glycine (n = 0 or 1) isotopomers are shown. The loss of M + 3 serine corresponding to the metabolism of [2,3,3-^2H]serine to M + 1 glycine is a direct measure of SHMT2 activity in the cells.[45] Experimental methods are described in the Experimental Section. Results are shown as mean values plus/minus standard deviations (n = 3). *P < 0.05; **P < 0.01. […]
KB cells (1 × 10[6]) were seeded in each of three 60 mm dishes in folate-, serine-, and glycine-free RPMI1640 supplemented with 10% DFBS, 1% penicillin/streptomycin, 2 mM L-glutamine, 285 μM serine, 130 μM glycine, and 2 nM leucovorin. […] The targeted metabolites were quantitatively determined using the AB Sciex QTRAP 6500 LC–MS/MS system. […] Isotopomers were detected using multiple reaction monitoring (MRM) at the positive ionization mode. […] Absolute metabolite concentrations were calculated from calibration curves and then normalized to total protein concentrations measured from the postextraction pellet (solubilized in 0.5 N NaOH) using the Folin-phenol method.[53] […] To correct for multiple comparisons, adjusted p values were determined using Holm’s method.

[4] = system: PC43-10 CHO cells (expresses only human RFC); details: 96 h; mean (standard error); previously published; cited from earlier work
SHMT2 = target: T1, SHMT2 (Homo sapiens, UniProt P34897); test: SHMT2 coupled enzyme assay with MTHFD2 (NADH production); assay type: biochemical; details: mean (standard error), at least three replicate assays
T1 construct: N-terminal His6-tagged SHMT2 (residues 30–504); made in house; host or cells: E. coli Rosetta (DE3)pLysS
T1 sequence (P34897 30-504): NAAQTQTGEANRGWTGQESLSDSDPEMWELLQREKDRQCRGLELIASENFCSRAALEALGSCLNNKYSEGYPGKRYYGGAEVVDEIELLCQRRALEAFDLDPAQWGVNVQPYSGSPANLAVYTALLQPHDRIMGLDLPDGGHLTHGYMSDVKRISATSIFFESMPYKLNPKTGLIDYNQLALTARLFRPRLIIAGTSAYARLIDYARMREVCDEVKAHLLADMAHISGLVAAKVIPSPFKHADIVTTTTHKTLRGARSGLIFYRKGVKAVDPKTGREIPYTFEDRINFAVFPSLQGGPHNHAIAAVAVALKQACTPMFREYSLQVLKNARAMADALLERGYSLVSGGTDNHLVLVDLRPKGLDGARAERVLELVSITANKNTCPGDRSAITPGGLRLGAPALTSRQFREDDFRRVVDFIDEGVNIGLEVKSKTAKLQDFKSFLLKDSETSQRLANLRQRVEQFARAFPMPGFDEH
Protocol: N-terminal His6-tagged SHMT2 (residues 30–504) and full-length MTHFD2 were expressed in Rosetta (DE3)pLysS cells. One liter cultures were grown in LB media with 100 mg/mL ampicillin and 35 mg/mL chloramphenicol at 37 °C until the OD600 was 0.6. […] The cells were pelleted and resuspended in 25 mL of 25 mM Tris–HCl, pH 7.5, 300 mM NaCl, and 5 mM β-Me. To lyse the cells, 40 mg lysozyme and 8 U DNAse I were added followed by incubation on ice for 15 min. The cells were then lysed by emulsification.
Purification of His-SHMT2 and His-MTHFD2 was by Ni-affinity chromatography (above). For further purification of His-SHMT2, pyridoxal 5′-phosphate (PLP) was added (3-fold excess to His-SHMT2) followed by incubation for 16–18 h. Further purification was by size exclusion chromatography on a Superdex 200 16/60 column (GE Healthcare) with monitoring of PLP absorbance at 435 nm. Purified His-SHMT2 was stored in 20 mM sodium phosphate buffer, pH 7.5, 100 mM potassium chloride, 0.2 mM EDTA, and 5 mM β-ME. To further purify MTHFD2, size exclusion chromatography was performed using a Superdex 200 16/60 column (GE Healthcare). His-MTHFD2 was stored in 50 mM Tris–HCl buffer, pH 7.5, 250 mM sodium chloride, 5% glycerol, and 0.5 mM tris(2-chloroethyl) phosphate (TCEP).
Kinetic measurements were recorded in triplicate in a UV-transparent 96-well plate (Costar 3635) at 298 nm using a BioTek Synergy Neo2 Plate Reader. Initial slopes were graphed against inhibitor concentrations and fit to a three-parameter nonlinear regression to calculate IC50 values for each compound (GraphPad Prism 8.0). […] SHMT2 activity was assayed by monitoring NADH production with a coupled assay including 500 nM His-SHMT2 and 10 μM His-MTHFD2 (1:200 molar ratio His-SHMT2/His-MTHFD2). NADH production by His-MTHFD2 was monitored by fluorescence at 470 nm with excitation at 360 nm (Synergy Neo2 Biotek plate reader). Inhibition constants (Ki’s) were calculated from the IC50 values using the equation Ki = IC50/([S]/KM + 1) and the Km and substrate concentration for THF. The THF concentration in the reaction was 50 mM.

[5] = system: KB human tumor cells (RFC/FRα/PCFT); details: 96 h, no folic acid; mean (standard error); previously published; cited from earlier work
human GARFTase = target: T2, human GARFTase (Homo sapiens, UniProt P22102); design: method as in PMID 33773393, PMID 31289137, PMID 27439469; details: mean (standard error); previously reported; cited from earlier work
T2 construct: GARFTase (formyltransferase domain; residues 808–1010); made in house; host or cells: E. coli Rosetta (DE3)pLysS
T2 sequence (P22102 808-1010): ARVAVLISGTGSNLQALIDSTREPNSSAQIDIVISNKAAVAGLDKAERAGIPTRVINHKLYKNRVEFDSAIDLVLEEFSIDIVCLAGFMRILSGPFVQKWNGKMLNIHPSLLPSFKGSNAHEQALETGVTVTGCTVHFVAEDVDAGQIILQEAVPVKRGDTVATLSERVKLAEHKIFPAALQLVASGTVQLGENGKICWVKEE

| SMILES | Protection from growth inhibition by glycine plus adenosine over adenosine alone (KB tumor cells; 160 μM glycine combined with 60 μM adenosine) | IC50 [1] | IC50 [2] [nM] | Increase in M + 3 serine [3] | IC50 [4] [nM] | Ki (SHMT2) [nM] | IC50 [5] [nM] | Protection from growth inhibition by adenosine (KB tumor cells) | Ki (human GARFTase) [nM] |
| --- | --- | --- | --- | --- | --- | --- | --- | --- | --- |
| Nc1nc2sc(CCCCc3ccc(C(=O)N[C@@H](CCC(=O)O)C(=O)O)cc3)cc2c(=O)[nH]1 [Compound 2] | substantially enhanced and was complete | 9 nM | 20 | 2–4 fold | > 1000 | 12400 |  |  |  |
| Nc1nc2sc(CCCc3csc(C(=O)N[C@@H](CCC(=O)O)C(=O)O)c3)cc2c(=O)[nH]1 [Compound 10] |  | 0.4 nM and 0.44 nM | 0.24 |  | > 1000 |  | 1.48 | completely protective |  |
| Nc1nc2sc(CCCCc3csc(C(=O)N[C@@H](CCC(=O)O)C(=O)O)c3)cc2c(=O)[nH]1 [Compound 11] |  | 5.62 nM | 5.63 |  | > 1000 |  | 6.85 | completely protective | > 150000 |
| Nc1nc2[nH]cc(CCc3ccc(C(=O)N[C@@H](CCC(=O)O)C(=O)O)cc3)c2c(=O)[nH]1 [PMX, reference compound] |  | 42 nM | 60 |  |  |  |  |  |  |
